Assay results as given in patent US7476684B2, “Compounds for the treatment of neurological, psychiatric or pain disorders” (AstraZeneca AB, priority 2005, dated 2009).

Key:
[1] = Intrinsic dissolution rate, low-volume rotating disc method; assay type: physicochemical; settings: salt made at 1 g scale from ethanol; disc 0.07 cm^2, 500 rpm, 50 mL USP Phosphate buffer pH 6.8 at 37° C.
Procedure: The salt manufactured at 1 g scale from ethanol was further investigated for its intrinsic dissolution rate and compared to the free base of 4-(5-{(1R)-1-[5-(3-chlorophenyl)isoxazol-3-yl]ethoxy}-4-methyl-4H-1,2,4-triazol-3-yl)pyridine. […] Dissolution rates of the base and salt were measured with a low-volume rotating disc method. Discs were compressed from pure compound and centrically mounted in a disc holder with an exposed area of 0.07 cm^2. The disc holder rotated at 500 rpm immersed in 50 mL USP Phosphate buffer pH 6.8 at 37° C. The compound was analyzed UV-Online by a Spectrophotometer with a flow cell and a peristaltic pump with continuous circulation.

[2] = Moisture sorption / deliquescence of the salt versus relative humidity; assay type: physicochemical

Compound | intrinsic dissolution rate as compared to the free base [1] | increased moisture sorption at relative humidity ([2]; crystalline hydrochloride salt) | deliquesce at relative humidity ([2]; first batch, oiled salt recrystallised in ethanol) | deliquesce at relative humidity ([2]; second batch, salt manufactured from ethanol at 68° C.)
C[C@@H](Oc1nnc(-c2ccncc2)n1C)c1cc(-c2cccc(Cl)c2)on1.Cl [Example 17, 4-(5-{(1R)-1-[5-(3chlorophenyl)isoxazol-3-yl]ethoxy}-4-methyl-4H-1,2,4-triazol-3-yl)pyridine hydrochloride] | 1000 times | 90-95 % RH |  | 
C[C@@H](Oc1nnc(-c2ccncc2)n1C)c1cc(-c2cccc(Cl)c2)on1.O=S(=O)(O)O [Example 18, 4-(5-{(1R)-1-[5-(3-chlorophenyl)isoxazol-3-yl]ethoxy}-4-methyl-4H-1,2,4-triazol-3-yl)pyridine sulphate] |  |  | 60-70 % relative humidity | 70-80 % RH
